Experimental data from the NIST ThermoML archive (doi:10.1016/j.jct.2007.04.011).

Key:
[1] = xn = mol fraction of the nth substance listed; conditions: 101 kPa, Liquid, Small sample (50 mg) DSC
[2] = 298.15 K, 101.33 kPa, Liquid
[3] = molar heat capacity at constant pressure; conditions: 101.33 kPa, Liquid

OCCCCO [1,4-butanediol] + CCCCO
excess molar heat capacity [J/K/mol], [1]
Conditions | x1 = 0.0804 | x1 = 0.1099 | x1 = 0.1826 | x1 = 0.2497 | x1 = 0.3244 | x1 = 0.5919
293.15 K | 0.031 | 0.095 | 0.129 | 0.127 | 0.089 | 0.005
298.15 K | – | 0.096 | 0.011 | 0.093 | 0.016 | –
303.15 K | – | 0.055 | – | 0.025 | – | –

CC(O)CC(C)(C)O (stereo unspecified) [2-methyl-2,4-pentanediol]
Conditions | mass density [kg/m3] | molar heat capacity at constant pressure [J/K/mol]
[2], Vibrating tube method | 918.22 | –
[3], 298.15 K | – | 263.09
[3], 303.15 K | – | 267.1
[3], 308.15 K | – | 271.31
[3], 313.15 K | – | 275.53
[3], 318.15 K | – | 279.94
[3], 323.15 K | – | 284.5
[3], 328.15 K | – | 289.17
[3], 333.15 K | – | 293.9
[3], 338.15 K | – | 298.68
[3], 343.15 K | – | 303.35
[3], 353.15 K | – | 313.68

CCCCO [butan-1-ol]
Conditions | mass density [kg/m3]
[2] | 805.77

[3]
Conditions | molar heat capacity at constant pressure [J/K/mol]
293.15 K | 173.8
298.15 K | 177.1
303.15 K | 180.61
308.15 K | 184.28
313.15 K | 188.02
318.15 K | 192.1
323.15 K | 196.13
328.15 K | 200.4
333.15 K | 204.72
338.15 K | 209.16
343.15 K | 213.57
348.15 K | 218.1
353.15 K | 222.54

CC(O)C(C)O (stereo unspecified) [2,3-butanediol]
Conditions | mass density [kg/m3]
[2] | 1000.4

[3]
Conditions | molar heat capacity at constant pressure [J/K/mol]
298.15 K | 236.67
303.15 K | 239.28
308.15 K | 241.85
313.15 K | 244.35
318.15 K | 246.82
323.15 K | 249.23
328.15 K | 251.6
333.15 K | 253.91
338.15 K | 256.17
343.15 K | 258.39
348.15 K | 260.55
353.15 K | 262.67

OCCCCO [1,4-butanediol]
Conditions | mass density [kg/m3]
[2] | 1012.75

[3]
Conditions | molar heat capacity at constant pressure [J/K/mol]
293.15 K | 200.39
298.15 K | 203.06
303.15 K | 205.82
308.15 K | 208.65
313.15 K | 211.57
318.15 K | 214.55
323.15 K | 217.61
328.15 K | 220.72
333.15 K | 223.9
338.15 K | 227.12
343.15 K | 230.4
348.15 K | 233.72
353.15 K | 237.07

CCC(O)CO (stereo unspecified) [1,2-butanediol]
Conditions | mass density [kg/m3]
[2] | 998.408

[3]
Conditions | molar heat capacity at constant pressure [J/K/mol]
288.15 K | 225.51
293.15 K | 228.22
298.15 K | 230.94
303.15 K | 233.64
308.15 K | 236.32
313.15 K | 238.97
318.15 K | 241.59
323.15 K | 244.18
328.15 K | 246.72
333.15 K | 249.2
338.15 K | 251.63
343.15 K | 254
348.15 K | 256.29
353.15 K | 258.5
358.15 K | 260.63
